According to patent US20150273070A1, “MODIFIED RELEASE OF 4-METHYL-3-[[4-(3-PYRIDINYL)-2-PYRIMIDINYL]AMINO]-N-[5-(4-METHYL-1H-IMIDAZOL-1-YL)-3-(TRIFLOUOROMETHYL)PHENYL] BENZAMIDE SOLUBILIZED USING ORGANIC ACIDS” (Novartis AG, priority 2011, published 2015):

What was measured:
[1] = Solubility of nilotinib in ethanol with citric acid; assay type: physicochemical
[2] = Solubility of nilotinib in lactic acid; assay type: physicochemical
From the text: Nilotinib solubilized modified release solid dosage forms containing lactic acid were developed. […] Surfactants and/or polymers were used to prevent the precipitation after solubilized nilotinib is released from the formulation matrix. Due to the liquid nature of lactic acid this formulation matrix is in the liquid form. However, by incorporation of additional suitable excipients, the formulation could be solidified at room temperature. This improved the physical and chemical stability of nilotinib in the formulation. In addition, the solid state also provided the opportunity to modulate the drug release rate.

Question: With `Cc1cn(-c2cc(NC(=O)c3ccc(C)c(Nc4nccc(-c5cccnc5)n4)c3)cc(C(F)(F)F)c2)cn1` [nilotinib, 4-Methyl-3-[[4-(3-pyrldinyl)-2-pyrimidinyl]amino]-N-[5-(4-methyl-1H-imidazol-1-yl)-3-(trifluoromethyl)phenyl] benzamide] as the molecule, how does the “solubility of the drug in ethanol” value [1] read?
Answer: remarkably high solubility

Question: And the “solubility at intestinal pH” value ([2]; in presence of surfactants and/or polymers)?
Answer: could maintain its solubility at intestinal pH

Question: And the solubility ([2]; lactic acid, organic solvent or mixture, at 65° C.)?
Answer: > 600 mg/mL
